# What was measured:
# [1] = test system: Two spotted mite (TSM) Tetranychus urticae Koch; assay: TSM leaf disc bioassay, Potter spray tower; assay type: in vivo; set-up: LD50 and 95% CL: unit not given beside the values; settings: for LD50 and 95% CL: in vivo
# Method: Two spotted mite (TSM) Tetranychus urticae Koch [Acarina: Tetranychidae] were collected from a mass culture maintained at the University of Western Sydney's Hawkesbury Campus in Richmond, NSW, Australia. They were reared on potted French beans (Phaseolus vulgaris L [Fabales: Fabaceae] in a glasshouse maintained at 25±5° C., 65±5% RH and 14 h D:L photoperiod. Only young females were selected for bioassay.
# From an E. cloeziana oil extract (containing 85% tasmanone), 1.1765 g was dissolved in 5 mL ethyl alcohol and distilled water containing 200 ppm Triton X-100™ was added to prepare a 1% stock solution. From this homogenised stock solution, further serial dilutions of 0.0125, 0.025, 0.05, 0.10, and 0.12% were prepared by mixing the required amount of stock solution in distilled water and Triton X-100 solution. Each treatment was conducted on 60-80 TSM, which were evenly distributed on four French bean leaf discs (25 mm diam) contained in 90 mm diam. petri dishes. The leaf discs were placed with their underside uppermost on moist absorbent cotton wool covered with muslin netting. Water was added to the dishes daily to prevent desiccation of the leaf discs. Five mL aliquots (unless otherwise stated) were applied to each petri dish with a Potter precision spray tower as described by Herron et al (1995). The average mass of solution applied to each dish was calculated to be 3.95 mg/cm^2. Mortality was recorded 24 h after treatment. Death was recognised by the absence of movement when the test organisms were mechanically stimulated. Data were analysed using SPSS for Windows™ Version 7. Probit analysis was carried out for dose-mortality data and heterogeneity of regressions was determined by the Pearson chi-squared characteristic.
# In addition, TSM was treated with E. cloeziana oil extract in combination with paraffin oil. In particular, E. cloeziana oil extract at levels of 0.1, 0.2, 0.3, 0.4 and 0.5 g were weighed out and each was made up to a weight of 10.0 g with a formulated paraffin oil (BioPest®), which was then sonicated for 10 min. A 1.0% v/v of each blend was prepared by mixing 1.0 mL with distilled water in a 100.0 mL volumetric flask. TSM were transferred to the petri dish following the same standard method. Five-mL aliquots were applied to each petri dish and mortality was recorded 24 h after treatment. All blends of E. cloeziana oil extract with paraffin oil produced 100.0% mortality, compared with Biopest® alone which caused only 35.5±6.9 mortality.
# The efficacy of purified β-triketones against TSM was investigated using the TSM bioassay described in Example 8.
# [2] = test system: greenhouse thrips (GHT), Heliothrips haemorrhoidalis Bouché; assay: Greenhouse thrips bioassay on lemon leaf discs, Potter spray tower; assay type: in vivo
# Method: Adult parthenogenetic female greenhouse thrips (GHT), Heliothrips haemorrhoidalis Bouché (Thysanoptera: Thripidae) of similar age were obtained from a colony reared on orange fruits and maintained in an insectary at UWS Hawkesbury under conditions of 25±3° C., 65% RH and 16 h D:L photoperiod
# The same experimental procedure used for TSM was repeated for GHT except that lemon leaf discs were used instead of French beans. The required number of adult thrips for each treatment was transferred with a fine brush to the underside of a lemon disc of the same diameter (6 cm) as the base of a petri dish. The lemon disc was mounted on agar with its adaxial side uppermost. Immediately after treatment the petri dish was covered with perforated plastic wrap. […]
# The efficacy of purified β-triketones against GHT was investigated using the GHT bioassay described in Example 8.
# All β-triketones except jensenone caused 100% mortality on GHT at a concentration of 0.3% when 5 mL aliquots were applied with a Potter spray tower.
structure (smiles),measurement,setting,value
"CC(=O)C1=C(O)C(C)(C)C=C(C)C1=O [Dehydroangustione, 1-acetyl-3,5,5-trimethylcyclohex-3-en-2,6-dione]",LD50 and 95% CL,[1],0.36 (0.33-0.41)
"COC1=C(C)C(=O)C(C(=O)C(C)C)C(=O)C1(C)C (stereo not drawn) [Tasmanone, 1-isobutroyl-4-methoxy-3,5,5-trimethylcyclohex-3-en-2,6-dione]",LD50 and 95% CL,[1],0.055
"CC(=O)C1=C(O)C(C)CC(C)(C)C1=O (stereo not drawn) [Angustione, 1-acetyl-3,5,5-trimethylcyclohex-2,6-dione]",LD50 and 95% CL,[1],0.22 (0.21-0.24)
"CC1(C)C(=O)C(CCc2ccccc2)C(=O)C(C)(C)C1=O [Grandiflorone, 1-(2-phenylethyl)-3,3,5,5-tetramethylcyclohexan-2,4,6-trione]",LD50 and 95% CL,[1],0.04
"COC1=CC(=O)C(C(C)=O)C(=O)C1(C)C (stereo not drawn) [Platyphyllol, 6,6-dimethyl-2-acetyl-5-methoxycyclohex-4-ene-1,3-dione]",LD50 and 95% CL,[1],0.070
CC(C)CC(=O)C1C(=O)C(C=O)C(=O)C(C=O)C1=O (stereo not drawn) [Jensenone],behavioural effect on treated TSM,"[1]; TSM, 0.05-0.4%",to move normally and continued to convulse
same,recovery of treated TSM,"[1]; TSM, 0.05-0.4%",treatment. There was no recovery.
same,time after treatment at which TSM commenced to die,"[1]; TSM, 0.05-0.4%",until they commenced to die 72 h after
same,direct mortality within 24 h,"[1]; TSM, any concentration tested (0.05-0.4%)",No direct mortality occurred in any
same,mortality,[2]; 72 h after application in the 0.4% treatment,60.0%
same,behavioural effects,[2]; all concentrations tested,Convulsion and lack of movement
same,direct mortality within 24 h,[2]; all concentrations tested,did not cause direct mortality

# Reference: patent publication US20120184625A1, “METHODS AND COMPOSITIONS FOR CONTROLLING PESTS” (priority 2001, published 2012)
